# Experimental data reported in patent publication US20250084380A1, “ARTIFICIAL BRAIN TISSUE” (priority 2016, published 2025).
# Experiments:
# [1] = system: hiPSC derived 3D neural culture; assay: Local field potential recordings of hiPSC-derived 3D neural culture with activity inhibitors; assay type: cell-based, human; conditions: for spontaneous and inducible activity (LFP): CNQX 50 μM, AP5 250 μM together
# [2] = system: primary murine striatal neurons, astrocytes, and microglia; assay: 3D tri-culture intracerebral hemorrhage model with necrostatin-1 treatment; assay type: cell-based, mouse; conditions: for total cell number / DNA content (DNA quantification): nec-1 conditions, 24 hour; for ROS / reactive species level vs untreated samples: nec-1 groups, 4 hours post-injury, 250 mol/mL nec-1 for 15 minutes prior to injury
# Method: Hemorrhage injuries were performed at the Neuroscience Center at Massachusetts General Hospital. Samples were transported to the Center, incubated for one hour at 37° C., and then injected with 10 μL of mouse blood and incubated for another hour before being returned to the Tufts University Biomedical Engineering Department. Samples were evaluated at 4 and 24 hours post-injury. For necrostatin-1 treatment, samples were incubated with […] necrostatin-1 for 15 minutes prior to performing a hemorrhage injury.
# For all studies, groups included: untreated controls, sham, sham plus nec-1 treatment, hemorrhage (ICH) or ICH plus nec-1 treatment samples.
# Cell viability was assessed with a Live/Dead assay, which uses a mixture of calcein and propidium iodide stains (1.2 μL of calcein (reconstituted in DMSO) and 10 μL of propidium iodide (“PI”) per 1 mL of final stain solution). Samples were washed with PBS 2-3 times and any remaining PBS was aspirated. Sponges were transferred to a 96 well plate, 100 μL of calcein/PI stain solution was added to each sample, and they were incubated at 37° C., covered in aluminum foil for 30 minutes. The stain solution was then aspirated, samples were washed with PBS 2-3 times, and then imaged using a confocal microscop with lasers of wavelengths of […] (to detect calcein staining) and […] (to detect PI staining).
# DNA was quantified using a PicoGreen assay. To prepare samples for DNA quantification, they were first washed once with PBS, followed by addition of 100 μL of 0.05% Triton-X to cover the sponge. Samples were stored at −20° C. until use. For measurements, samples were thawed at room temperature and homogenized with scissors. Supernatant was collected and placed in a tube, on ice. Enough 1×TE Buffer needed for a dilution of 100 μL 1×TE buffer and 200 μL supernatant for each sample was prepared, and 4 mL of 1×TE buffer was prepared for the standards. 20×TE buffer was diluted 1:20 in diH20 to get 1×TE buffer. 1×TE buffer was then mixed with sample supernatants in separate 1.5 mL tubes. 100 μL of each sample was added to a 96-well plate, in triplicate. Standards were prepared by mixing the DNA working solution and the TE buffer to create 400 μL solutions with the following DNA concentrations: 2000 ng/mL, 1000 ng/mL, 500 ng/mL, 200 ng/mL, 100 ng/mL, 50 ng/mL, 20 ng/mL, and 0 ng/mL. Once samples were ready for analysis and the fluorescence plate reader was warmed and ready, PicoGreen stain was added to each sample. PicoGreen stain was prepared by making a 200-fold dilution of the stock PicoGreen stain in 1×TE Buffer for a final volume of 100 μL per sample plus 30%. The PicoGreen solution was protected from light and 100 μL of the diluted PicoGreen solution was added to each sample, then incubated at room temperature for 2-3 minutes. Fluorescence of samples was read using a plate-reader with 485 nm excitation and 538 nm emission. Fluorescence readings were converted into cell counts by using standard calculations to determine DNA content of each sample, which was then divided by 5.5 pg, which is the average mass of DNA in neurons (Moroz and Kohn 2013).
# LDH assays were run on all samples and standards in duplicate, using a commercially available kit. An NADH standard was prepared using the stock NADH standard solution and the LDH assay buffer to achieve 50 μL each of the following concentrations: 0, 2.5, 5, 7.5, 10, and 12.5 nmole per 50 μL. 500 μL of LDH assay buffer was added to each sample for every 100 mg of tissue and samples were then homogenized with scissors, on ice, prior to centrifuging for 15 min at 10,000 xg and 4° C. 50 μL of the supernatant was added into wells in a 96 well plate (in duplicate) and LDH buffer was added to a total volume of 50 μL per well. For each reaction (sample and standards), 2 μL of LDH substrate mix was added to 48 μL of LDH assay buffer to create a Master Reaction Mix. 50 µL of reaction mix was added to each well and contents were mixed by pipetting up and down. […]
# microglia [3] = assay: Microglia activation with LPS treatment; assay type: cell-based, rat/mouse; conditions: 100 ng/mL LPS; 3 days
# Method: DAPI was used as a nuclear counterstain. Microglia were also assessed for their ability to activate upon or following treatment with lipopolysaccharide (LPS) (FIG. 1, panel G), and further analyzed post-treatment for expression of inducible nitric oxide synthase (iNOS) (FIG. 1, panel H) and interleukin 1-beta (IL1-beta) (FIG. 1, panel I). Microglia activation ability with LPS (lipopolysaccharide) treatment was performed with 100 ng/mL of LPS to activate microglia cells (20,000 cells per well, 96 well plate).
# microglia [4] = assay: Suppression of microglia in 2D primary astrocytic cultures; assay type: cell-based, mice
# From the text: In addition to primary microglia, an immortalized microglial cell line (N9) was also used. It was noted that this line has a fast proliferation rate and appeared to suppress neuronal cultures, so primary cell lines were maintained as a source of microglia. In general, it is thought that microglia inhibit growth of astrocytic populations. Microglia proliferation is strictly regulated by colony-stimulating factor 1 and its receptor on microglia membranes. Without wishing to be held to a particular theory, it was contemplated that if the receptor for CSF1 growth factor was inhibited, the growth of microglia in astrocytic population would be inhibited. Accordingly, a 2 week experiment was performed in two dimensional (2D) culture conditions to see if microglial growth could be inhibited. For this experiment, the glial media that was supplied with 1 uM supplement of CSF1R inhibitors was used. Media was changed every second day in 96 well plates with 10.000 mice primary astrocytic cultures. […] Number of microglia was determined in cells treated with CSF1R inhibitor or control (FIG. 1, panel N) and further evaluated via WST-1 assay (FIG. 1, panel O).
molecule,measurement,setting,value
"N[C@H](CCCP(=O)(O)O)C(=O)O [AP-5, (2R)-amino-5-phosphonopentanoate]",spontaneous and inducible activity (LFP),[1],partially blocked
"NC1=N[C@H](O)[C@H]2[C@H]3O[C@]4(O)O[C@@H]([C@@H](O)[C@@]2(N1)[C@@H]4O)[C@]3(O)CO [TTX, tetrodotoxin]",activity (LFP),[1],blocked
"CN1C(=O)C(Cc2c[nH]c3ccccc23)NC1=S (centres unmarked) [necrostatin-1, Necrostatin-1]","reactive species (ROS-RNS assay), differences between groups",[2]; 24 hours post-injury,No significant differences
same,LDH activity vs the two sham groups,[2]; ICH+nec-1,statistically higher levels of LDH activity
same,LDH activity,"[2]; ICH+nec-1 vs ICH, 24 hours",slightly lower level
same,reactive species (ROS-RNS assay),[2]; Sham+nec-1 compared to sham alone,significantly lower level of reactive species
same,total cell number / DNA content (DNA quantification),[2],higher DNA content
same,total cell number / DNA content (DNA quantification),[2]; listed as nec-1,significantly more cells were counted in nec-1 conditions
same,ROS / reactive species level vs untreated samples,[2],statistically significant decrease in the amount of reactive species
same,ROS / reactive species level vs untreated samples,[2]; listed as nec-1,significantly lower ROS levels
same,cell count and viability,"[2]; sham+nec-1, 24 hours",highest cell count and viability after 24 hours
lipopolysaccharide [LPS],microglia activation,microglia [3],efficient to activate microglia
"N#Cc1cc2c(cc1[N+](=O)[O-])=NC(=O)C(=O)N=2 [CNQX, 6-cyano-7-nitroquinoxaline-2,3-dione]",spontaneous and inducible activity (LFP),[1],partially blocked
O=P(O)(O)C(Cl)(Cl)P(=O)(O)O [clodronic acid],suitability to suppress microglial growth and activity,microglia [4],found unacceptable
